We go through 8 compounds from patent US20170119806A1, “[…] LACTONE DERIVATIVES AND METHODS OF MAKING AND USING THEREOF” (OHIO STATE INNOVATION FOUNDATION, priority 2014, published 2017).

Entries after “also recorded” stand apart in the source; their conditions may differ. Where two headings read alike, the source gives them in different places.

In data set [1] the test system is human colon cancer HT-29 cells implanted in NCr nu/nu mice. The note with it: ip once daily for four days; for activity in in vivo hollow fiber assay (HT-29 cell growth): 5.0-20.0 mg/kg; for toxicity in mice of the hollow fiber assay: up to 20.0 mg/kg.
Procedure: Mice were treated with the indicated doses of 1 once a day by intraperitoneal injection from day 3 to day 6 after implantation of the HT-29 cells facilitated in hollow fibers.
In Vivo Hollow Fiber Assay. […] The human colon cancer cell line HT-29 was used to evaluate 1 using procedures previously described (Mi Q et al. J. Nat. Prod 2009, 72,573-580; Pearce C J et al. Methods Mol. Biol, 2012, 944, 267-277). Eight- to nine-week-old immunodeficient NCr nu/nu mice were purchased from The Jackson Laboratory (Bar Harbor, Me., USA) and housed in microisolation cages at room temperature and a relative humidity of 50-60% under 12:12 h light-dark cycle. […] The mixture was diluted with distilled water to 13% DMSO and 25% CREMOPHOR™. The mice were injected ip once daily for four days with 1 or the positive control (paclitaxel). Each mouse was weighed daily during the study. […] The fibers were retrieved and viable cell mass was evaluated by a modified MTT (3-(4,5-dimethylthiazol-2-yl)-2,5-diphenyltetrazolium bromide) assay. The percentage of the net growth for the cells in each treatment group was calculated by subtracting the day 0 absorbance from the day 7 absorbance and dividing this difference by the net growth in the vehicle control (minus value between the day 7 and the day). Data were compared by the Student's t test, and a p value less than 0.05 was considered statistically significant.
Immunodeficient NCr nu/nu mice implanted with human colon cancer HT-29 cells placed in hollow fibers were treated once daily by 1 at doses of 5.0, 10.0, 15.0, or 20.0 mg/kg, or the vehicle control, or paclitaxel (5 mg/kg), by intraperitoneal (ip) injection tier four days. The relative FIT-29 cell growth values from all mice were calculated.
The subject of the next data set is HT-29 cells. Nature of the data set: Annexin V staining apoptosis assay. The note with it: for HT-29 cell apoptosis at the late-stage / HT-29 cells undergoing early apoptosis: 72 h.
For data set [2], the system named is CCD-112CoN normal human colon cells. The data set is described as follows: Cytotoxicity against CCD-112CoN cells. The note with it: for IC50: read-out: IC50 values toward the CCD-112 CoN cells.
Source text: Following a previous procedure (Still P C et al. J. Nat. Prod. 2013, 76, 243-249) and the method for screening cytotoxicity towards HT-29 cells mentioned above, the cytotoxicity of the samples was screened against CCD-112CoN normal human colon cells.
Data set [3] relates to HT-29 human colon cancer cells. The data set is described as follows: Cytotoxicity against HT-29 cells.
Procedure: (§1) The cytotoxicity of the test compounds was screened against HT-29 cells by a previously reported procedure (Ren Y et al. J. Nat. Prod 2011, 74, 1117-1125). Paclitaxel and etoposide were used as positive controls.
(§2) All arylnaphthalene lignans isolated from P. poilanet in the present study and their semi-synthetic analogues were evaluated for their cytotoxicity against HT-29 human colon cancer cells, using paclitaxel as the positive control (Table 6) (Ren Y et al. J. Nat. Prod 2011, 74, 1117-1125).
In a further data set the target is topo IIα (Homo sapiens, UniProt P11388). Nature of the data set: Topoisomerase II assay (DNA cleavage/relaxation). The format is biochemical. The note with it: 100 μM test compound. The source says:
The formation of linear DNA was detected by separating the SDS-treated reaction products using ethidium bromide gel electrophoresis and quantified by accounting for the relationship between fluorescence and relative band intensity for open circular (OC), linear (LNR), supercoiled (SC), and relaxed (RLX) configurations of DNA.
Topoisomerase II Assay. […] The formation of linear DNA was detected by separating the SDS-treated reaction products using ethidium bromide gel electrophoresis by a modification of a previously described procedure (Hasinoff B B et al. Mol. Pharmacol. 2005, 67, 937-947). In this system, topo II-mediated catalytic conversion of supercoiled pBR322 DNA to the “relaxed” form of plasmic' DNA can also be observed. A 20 μL cleavage assay reaction mixture contained 250 ng topo IIα protein, 160 ng pBR322 plasmid DNA (NEB, Ipswich, Mass.), 1.0 mM ATP in assay buffer (10 mM Tris-HCl (pH 7.5), 50 mM KCl, 50 mM NaCl, 0.1 mM EDTA, 5 mM MgCl2, 2.5% glycerol), and 100 μM of test compounds or DMSO solvent, as indicated. Assay buffer (17 μL) and test compound/DMSO (1 μL) were mixed and allowed to sit at room temperature for 30 min after which 2 μL of topo IIα was added to initiate the reaction. Tubes were incubated at 37° C. for 15 min, and then quenched with 1% (v/v) SDS/10 mM disodium EDTA/200 mM NaCl. The mixture was treated subsequently with 0.77 mg/mL proteinase K (Sigma) at 55° C. for 60 min to digest the protein, and DNA bands were separated by electrophoresis (18 h at 2 V/cm) on an agarose gel (1.3% w/v) containing 0.7 μg/mL ethidium bromide in TAE buffer pH 8.0 (40 mM Tris base, 0.114% (v/v) glacial acetic acid, 2 mM EDTA). The DNA in the gel was imaged by its fluorescence on a Chemi-Doc XRS+ imager (Bio-Rad, Hercules, Calif.). Linear DNA was quantified by accounting for the relationship between fluorescence and relative band intensity for open circular (QC), linear (LNR), supercoiled (SC), and RLX (relaxed) configurations of DNA (Projan S J et al. Plasmid 1983, 9, 182-190), then calculating % of LNR from the total DNA content in each lane.

Data set [4] concerns HT-29 human colon cancer cells.
Procedure: as §1, §2
The mark [5] stands for this setting: read-out: IC50 values toward the HT-29 cells, Table 6, triplicate, two independent experiments.
[6] abbreviates: Homo sapiens, HT-29, read-out: IC50 values toward the HT-29 cells.

topo IIα, sequence (P11388 whole entry): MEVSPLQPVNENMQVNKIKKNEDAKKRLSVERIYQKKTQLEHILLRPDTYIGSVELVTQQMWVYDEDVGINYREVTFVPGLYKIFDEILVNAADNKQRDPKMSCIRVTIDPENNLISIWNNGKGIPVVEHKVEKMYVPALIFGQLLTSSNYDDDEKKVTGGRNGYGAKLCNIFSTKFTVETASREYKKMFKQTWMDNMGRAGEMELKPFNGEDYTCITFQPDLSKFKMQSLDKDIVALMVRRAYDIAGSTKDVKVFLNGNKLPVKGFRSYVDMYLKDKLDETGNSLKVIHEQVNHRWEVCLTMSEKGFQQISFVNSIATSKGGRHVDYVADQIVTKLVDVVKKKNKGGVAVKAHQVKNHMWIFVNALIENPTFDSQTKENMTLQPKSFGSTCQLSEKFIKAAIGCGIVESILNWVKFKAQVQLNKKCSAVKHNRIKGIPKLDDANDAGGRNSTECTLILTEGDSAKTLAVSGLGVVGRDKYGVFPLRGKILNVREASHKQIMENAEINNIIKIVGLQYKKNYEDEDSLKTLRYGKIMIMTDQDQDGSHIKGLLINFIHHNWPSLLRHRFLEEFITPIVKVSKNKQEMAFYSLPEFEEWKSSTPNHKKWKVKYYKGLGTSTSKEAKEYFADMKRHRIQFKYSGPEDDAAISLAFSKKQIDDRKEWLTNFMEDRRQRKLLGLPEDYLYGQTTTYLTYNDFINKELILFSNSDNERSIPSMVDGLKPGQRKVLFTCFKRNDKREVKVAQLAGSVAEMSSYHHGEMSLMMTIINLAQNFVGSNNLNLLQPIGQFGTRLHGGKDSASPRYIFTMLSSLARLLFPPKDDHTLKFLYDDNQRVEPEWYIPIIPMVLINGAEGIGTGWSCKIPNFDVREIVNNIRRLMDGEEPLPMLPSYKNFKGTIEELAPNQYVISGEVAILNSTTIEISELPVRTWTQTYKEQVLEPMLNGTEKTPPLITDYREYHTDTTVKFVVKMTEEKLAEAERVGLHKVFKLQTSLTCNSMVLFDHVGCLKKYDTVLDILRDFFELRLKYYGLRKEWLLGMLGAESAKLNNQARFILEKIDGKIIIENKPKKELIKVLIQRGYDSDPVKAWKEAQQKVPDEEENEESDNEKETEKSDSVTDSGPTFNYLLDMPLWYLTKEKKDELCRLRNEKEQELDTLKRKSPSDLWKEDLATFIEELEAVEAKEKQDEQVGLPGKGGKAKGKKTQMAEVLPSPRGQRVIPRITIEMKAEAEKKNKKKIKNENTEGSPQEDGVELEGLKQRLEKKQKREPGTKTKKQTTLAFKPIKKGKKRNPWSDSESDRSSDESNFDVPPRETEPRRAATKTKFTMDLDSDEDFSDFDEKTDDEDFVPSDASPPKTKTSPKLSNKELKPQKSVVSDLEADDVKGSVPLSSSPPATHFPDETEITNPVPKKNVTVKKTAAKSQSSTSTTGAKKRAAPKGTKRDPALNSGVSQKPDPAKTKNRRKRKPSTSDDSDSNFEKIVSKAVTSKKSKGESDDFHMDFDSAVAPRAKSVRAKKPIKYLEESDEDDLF

In general, IC50 refers to the concentration at which inhibition is half-maximal. Take `COc1cc2c(O[C@@H]3OC[C@H](OC(C)=O)[C@H](OC(C)=O)[C@H]3O)c3c(c(-c4ccc5c(c4)OCO5)c2cc1OC)C(=O)OC3` [Compound 1, 7-O-[(3,4-di-O-acetyl)-α-L-arabinopyranosyl] diphyllin]: the “activity in in vivo hollow fiber assay (HT-29 cell growth)” value in data set [1] is reported as “showed activity; also recorded: dose dependent tendency; also recorded: active; also recorded: antitumor efficacy in vivo”; in data set [1] (listed as Phyllanthusmin D), “active”. The “toxicity in mice of the hollow fiber assay” value is recorded as “no signs of toxicity; also recorded: No gross toxicity; also recorded: without any gross toxicity” in data set [1] and “no signs of gross toxicity” in data set [1] (listed as Phyllanthusmin D). For the same compound, in the data set with HT-29 cells, the “HT-29 cell apoptosis induction (in words)” value was “inducing tumor cell apoptosis; also recorded: induction of tumor cell apoptosis; also recorded: can induce HT-29 cell apoptosis”. Besides, the “HT-29 cell apoptosis at the late-stage” value worked out at 27.3% with HT-29 cells (1 μM) and 38.0% in the data set on HT-29 cells (5 μM). The “HT-29 cells undergoing early apoptosis” value in the data set on HT-29 cells (1 μM) came out at 28.2%; in the data set on HT-29 cells (5 μM) it was 30.3%. Besides, the “cytotoxicity toward CCD-112CoN human normal colon cells (in words)” value in data set [2] was “non-cytotoxic”. Further, the IC50 in data set [2] (Table 6) was greater than 100000 nM; in data set [3] (read-out: IC50, cytotoxicity toward HT-29 cells) it was 170 nM. Further, the EC50 in data set [3] (read-out: ED50, toxicity towards HT-29 cells, natural samples) was determined as 170 nM. In addition, at topo IIα, the “topo IIα inhibition (in words)” value is “did not inhibit DNA topoisomerase IIα activity; also recorded: not topo Ha inhibitors; also recorded: no inhibitory activity against topo IIα; also recorded: not topo IIα inhibitors”.
`COc1cc2c(O[C@@H]3OC[C@H](O)[C@H](OC(C)=O)[C@H]3O)c3c(c(-c4ccc5c(c4)OCO5)c2cc1OC)C(=O)OC3` [Compound 2, 7-O-[(3-O-acetyl)-α-L-arabinopyranosyl] diphyllin]: in data set [3] (setting [5]), the IC50 was 1800 nM.
On to `COc1cc2c(O[C@@H]3OC[C@H](OC(C)=O)[C@H](O)[C@H]3O)c3c(c(-c4ccc5c(c4)OCO5)c2cc1OC)C(=O)OC3` [Compound 3, Phyllanthusmin B], for which the IC50 in data set [3] (setting [5]) came to 1800 nM. Besides, in data set [4], the “cytotoxicity toward HT-29 cells (in words)” value is recorded as “cytotoxic”.
For the compound `COc1cc2c(O[C@@H]3O[C@H](CO)[C@@H](O)[C@H](O)[C@H]3O)c3c(c(-c4ccc5c(c4)OCO5)c2cc1OC)C(=O)OC3` [Compound 5, Cleistanthin B], the IC50 in data set [3] (setting [5]) is greater than 10000 nM.
In the case of `COc1cc2c(OC)c3c(c(-c4ccc5c(c4)OCO5)c2cc1O)C(=O)OC3` [Compound 6, Phyllanthusmin A], the IC50 in data set [3] (setting [5]) is greater than 10000 nM. Moreover, the “cytotoxicity toward HT-29 cells (in words)” value in data set [4] is “inactive”.
With `COc1cc2c(O)c3c(c(-c4ccc5c(c4)OCO5)c2cc1OC)C(=O)OC3` [Compound 8, Diphyllin], in data set [3] (setting [6]), the IC50 was 7600 nM.
With `COc1cc([C@@H]2c3cc4c(cc3[C@@H](O[C@@H]3O[C@@H]5CO[C@@H](C)O[C@H]5[C@H](O)[C@H]3O)[C@H]3COC(=O)[C@H]23)OCO4)cc(OC)c1O` [etoposide, reference compound], in the data set with HT-29 cells (1 μM), the “HT-29 cell apoptosis at the late-stage” value is reported as 19.8% and the “HT-29 cells undergoing early apoptosis” value is 12.9%. In the data set with HT-29 cells (5 μM), the “HT-29 cell apoptosis at the late-stage” value worked out at 25.3% and the “HT-29 cells undergoing early apoptosis” value is given as 12.5%. In data set [3] (setting [6]), the IC50 is greater than 10000 nM.
Take `CC(=O)O[C@H]1C(=O)[C@@]2(C)[C@H]([C@H](OC(=O)c3ccccc3)[C@]3(O)C[C@H](OC(=O)[C@H](O)[C@@H](NC(=O)c4ccccc4)c4ccccc4)C(C)=C1C3(C)C)[C@]1(OC(C)=O)CO[C@@H]1C[C@@H]2O` [paclitaxel, reference compound]: the IC50 in data set [2] (Homo sapiens, CCD-112CoN) is 23000 nM; in data set [3] (setting [6]), 1 nM.
